Laboratory results as given in PubChem BioAssay (NCI).
Several values for one entry are separate records, joined by “and”; a condition that tells them apart may be missing. Identical values can stand only once.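 48-hour exposure; five concentrations; linearly interpolated endpoints. The concentration for 50% growth inhibition is given as GI50. The concentration for full growth arrest is given as TGI.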

Assays:
Assay in all cases: inhibition of tumour cell growth, NCI panel, 48 h
[1] = system: 786-0 renal
[2] = system: COLO 205 colon
[3] = system: EKVX NSCLC
[4] = system: K-562 leukemia
[5] = system: LOX IMVI melanoma
[6] = system: M14 melanoma
[7] = system: MDA-MB-231 breast
[8] = system: MOLT-4 leukemia
[9] = system: SK-MEL-5 melanoma
[10] = system: SW-620 colon

SMILES	GI50 [1] [µM]	TGI [1]	GI50 [2] [µM]	TGI [2]	GI50 [3] [µM]	TGI [3]	GI50 [4] [µM]	TGI [4]	GI50 [5] [µM]	TGI [5]	GI50 [6] [µM]	TGI [6]	GI50 [7] [µM]	TGI [7]	GI50 [8] [µM]	TGI [8]	GI50 [9] [µM]	TGI [9]	GI50 [10] [µM]	TGI [10]
Cc1ccccc1NC(=O)N/C(N)=N/c1nc(-c2cccc([N+](=O)[O-])c2)cs1	2.21	4.55 µM	3.89	> 100 µM	1.94	> 100 µM	0.555	> 100 µM	1.79	5.17 µM	2.15	19.6 µM	1.6	4.03 µM	3.39	> 100 µM	1.88	5.15 µM	2.3	> 100 µM
CC(C)=CCCC(C)c1ccc(C)c2c1OCN(CC1CCNCC1)C2 (configuration not stated)	12.2	26.3 µM	1.86	3.41 µM	20.7	66.9 µM	2.68	8.44 µM	5.87	20.2 µM	10.2	24.5 µM	12.5	28.3 µM	14.6	43.3 µM	4.97	18.3 µM	9.87	23.1 µM
CCN1CCN(C(=O)[C@]23CC[C@@H](C)[C@H](C)[C@@H]2C2=CC[C@@H]4[C@@]5(C)C/C(=C/c6ccncc6)C(=O)C(C)(C)[C@@H]5CC[C@@]4(C)[C@]2(C)CC3)CC1	1.73	3.43 µM	2.11	5.62 µM	1.47	3.41 µM	2.47	7.25 µM	1.51	2.98 µM	–	–	1.55	2.95 µM	1.78	4.57 µM	1.75	3.14 µM	1.71	3.7 µM
CCOC(=O)Nc1nc2ccc(Cn3cccc3)cc2[nH]1	–	> 100 µM	–	17.7 µM	–	> 100 µM	–	> 100 µM	–	> 100 µM	–	> 100 µM	–	> 27.2 µM	–	> 100 µM	–	> 38.6 µM	–	> 100 µM
CCN(CC)CC(O)CNc1ccc(NCC2CO2)c2c1C(=O)c1ccccc1C2=O (configuration not stated)	0.374	1.15 µM	0.581	4.38 µM	–	4.72 µM	0.0135	–	0.00454	0.0392 µM and 0.0576 µM	–	0.402 µM and 0.674 µM	–	3.01 µM	0.00515	0.0582 µM and 0.0292 µM	0.398	1.8 µM	0.0713	0.797 µM
NOCC(=O)O	> 100	> 100 µM	> 100	> 100 µM	> 100	> 100 µM	> 100	> 100 µM	> 100	> 100 µM	82.8	> 100 µM	53.2	> 100 µM	> 100	> 100 µM	> 100	> 100 µM	> 100	> 100 µM
C=C1C(=O)O[C@H]2[C@H]1CC/C(CNC(=O)c1cc3cc(OC)ccc3[nH]1)=C\CC[C@@]1(C)O[C@@H]21	1.51	3.2 µM	1.21	3.04 µM	1.28	3 µM	2.56	7.99 µM	1.36	2.67 µM	1.5	3.54 µM	1.71	4.49 µM	2.08	6.85 µM	2.01	4.85 µM	1.15	2.77 µM
COc1ccc(CN(C)c2ccc(CO)c(Cl)c2)cc1	13.7	> 66.4 µM	3.55	17.5 µM	22	> 91.6 µM	7.59	> 100 µM	27.9	> 100 µM	22.7	> 95.5 µM	22.7	> 88.8 µM	25.8	> 86.7 µM	8.24	21.9 µM	4.53	> 100 µM
O=C1c2ccccc2C(=O)N1CCCSc1ccccc1	–	> 100 µM	–	> 100 µM	–	> 100 µM	–	> 100 µM	–	> 100 µM	–	> 100 µM	–	> 100 µM	–	> 100 µM	–	> 100 µM	–	> 100 µM
COc1cc(C(=O)/C(C)=C/c2c[nH]c3ccccc23)cc(OC)c1OC	0.00639	> 100 µM	0.00354	0.0159 µM	0.0053	> 100 µM	0.00346	> 100 µM	0.00468	11.5 µM	0.00338	1.89 µM	0.0039	> 100 µM	0.00546	37 µM	0.00428	0.0205 µM	0.00416	> 100 µM
CC(=O)CC(=O)Nc1ccc2ccccc2c1	–	> 100 µM	–	> 100 µM	–	> 100 µM	–	> 100 µM	–	> 100 µM	–	> 100 µM	–	> 100 µM	–	> 100 µM	–	> 100 µM	–	> 100 µM
ClCc1cccc(Cn2cnc3c(NC45CC6CC(CC(C6)C4)C5)ncnc32)c1	3.43	25.8 µM	20.5	> 69.4 µM	18.6	40.7 µM	1.89	29.4 µM	15.7	31.7 µM	12.1	27.6 µM	15.5	39.3 µM	9.92	36 µM	16.4	31.7 µM	19.1	46.2 µM
COc1ccc([N+](=O)[O-])c2c(NCCCN(C)C)c3ccccc3nc12	–	0.504 µM	–	0.26 µM	–	0.557 µM	–	3.76 µM	–	5.11 µM	–	0.572 µM	–	2.31 µM	–	1.39 µM	–	0.243 µM	–	–
COc1cc(OC)cc(C2CC(=O)Nc3c2c(C)nn3-c2nc3ccccc3[nH]2)c1 (configuration not stated)	2.84	9.89 µM	2.7	6.55 µM	3.31	> 100 µM	3.15	> 100 µM	2.09	4.44 µM	2.46	7.27 µM	3.66	> 100 µM	0.0728	0.434 µM	1.97	4.27 µM	3.31	12.9 µM
CC(=O)c1c(C)[nH]c(-c2nc3ccc(N4CCN(C)CC4)cc3[nH]2)c1-c1ccc(OCC2CCOCC2)cc1	1.31	14.5 µM	0.334	4.65 µM	8.36	37.2 µM	0.37	9.08 µM	0.318	1.45 µM	0.63	4.64 µM	0.946	16.9 µM	1.63	20.6 µM	0.966	3.17 µM	1.68	18 µM
Cc1c[nH]c2c(O)cc3c(c12)[C@H](CCl)CN3C(=O)c1cc2cc(NC(=O)Nc3ccc4[nH]c(C(=O)N5C[C@@H](CCl)c6c5cc(O)c5[nH]cc(C)c65)cc4c3)ccc2[nH]1	0.000203	–	0.0137	–	–	7.21 nM and > 100 µM and 9.5e-07 µg/mL	–	–	0.00117	–	0.00359	–	0.0176	54.6 µM	–	–	–	26.6 nM and 25.5 µM and 0.00138 µg/mL	0.0068	–
COC(=O)c1cc2c(cc1Cl)SC(N(N(C)C)S(=O)(=O)c1ccc(Br)s1)=NS2(=O)=O	35.1	> 100 µM	21.2	50.9 µM	25.3	61 µM	16.1	33.6 µM	17.5	31.8 µM	23.2	49.2 µM	20.3	43.9 µM	15.5	36.1 µM	15.8	29.4 µM	18.6	36.3 µM
Nc1c(C(=O)c2ccc(Cl)cc2)sc(Nc2ccccc2)c1-c1nc2ccccc2s1	2.8	8.18 µM	–	–	2	> 100 µM	3.1	> 100 µM	3.25	> 100 µM	2.65	> 100 µM	2.35	> 100 µM	12.3	> 89.6 µM	16.6	> 100 µM	1.2	> 100 µM
O=c1ccn(C2OC(CO)C(O)C2F)c(=O)[nH]1 (configuration not stated)	> 1000	> 1000 µM	> 1000	> 1000 µM	> 1000	> 1000 µM	> 1000	> 1000 µM	> 1000	> 1000 µM	> 1000	> 1000 µM	> 1000	> 1000 µM	> 1000	> 1000 µM	> 1000	> 1000 µM	> 1000	> 1000 µM
O=C1c2ccccc2-c2c1c1ccccc1c(=O)n2CCCNCCCn1ccnc1	0.352	2.24 µM	2.13	13.2 µM	4.75	12.2 µM	0.529	2.65 µM	0.45	1.78 µM	0.51	1.13 µM	2.68	7.36 µM	0.0267	0.358 µM	0.379	1.68 µM	0.24	1.82 µM
CN[C@@H](C)C(=O)N[C@H](C(=O)N1CCC[C@H]1C(=O)N[C@H]1c2ccccc2C[C@H]1OCC#CC#CCO[C@@H]1Cc2ccccc2[C@@H]1NC(=O)[C@@H]1CCCN1C(=O)[C@@H](NC(=O)[C@H](C)NC)C1CCCCC1)C1CCCCC1	9.29	25.3 µM	1.78	3.55 µM	6.86	20.6 µM	2	4.66 µM	1.7	3.38 µM	5.72	18 µM	< 0.01	–	1.92	4.57 µM	2.37	13.7 µM	3.6	11.5 µM
CCN(CC)CCCC(C)Nc1c2ccc(Cl)cc2nc2ccc(OC)cc12 (configuration not stated)	1.88	4.15 µM and 4.77 µM	–	3.11 µM and 7.34 µM	2.09	7.29 µM and 13.3 µM	–	4.16 µM	1.52	3.56 µM and 2.57 µM	–	3.36 µM and 3.39 µM	0.968	–	0.863	4.34 µM and 2.52 µM	–	3.1 µM	1.18	8.55 µM and 4.35 µM
O=C1Nc2ccc(C(=O)c3ccco3)cc2/C1=C/c1cc(Cl)c(O)c(Cl)c1	4.29	11.6 µM	8.01	> 25 µM	11	> 25 µM	9.05	> 25 µM	1.78	15.3 µM	1.45	13.3 µM	9.89	> 25 µM	9.36	24.9 µM	3.43	6.88 µM	4.8	> 23.8 µM
COc1cc(Nc2nccc(Nc3ccc4c(C)[nH]nc4c3)n2)cc(OC)c1OC	2.93	9.7 µM	2.02	5.65 µM	1.87	9.19 µM	1.4	> 25 µM	0.963	3.98 µM	1.35	5.37 µM	1.76	10.5 µM	4.87	19.2 µM	2.69	5.96 µM	2.71	15.1 µM
O=S(=O)(NC1=NCCN1C(=S)SN1CCn2c1nsc2=S)c1ccc(Br)cc1	31	> 100 µM	28.7	86.3 µM	2.39	95.1 µM	24.6	83.2 µM	19.4	39.6 µM	68.8	> 100 µM	28.8	> 100 µM	27.1	> 100 µM	19.5	47.9 µM	24.2	73 µM
O=Cc1ccc(-c2cc(C=O)c(-c3cccs3)[nH]2)s1	> 100	75 µM and > 100 µM	–	75 µM and 88.6 µM	47.8	75 µM and > 100 µM	77.5	75 µM and > 100 µM	> 100	75 µM and > 100 µM	27.5	75 µM and > 100 µM	> 100	75 µM and > 100 µM	81	75 µM and > 100 µM	40.5	75 µM and > 100 µM	> 100	> 100 µM
COc1ccc(N2C(=O)CC(Cl)C2=O)cc1 (configuration not stated)	–	32 µM	–	30 µM	–	> 100 µM	–	17.5 µM	–	58.9 µM	–	> 100 µM	–	36.5 µM	–	–	–	> 100 µM	–	35.2 µM
